Assay results published in patent US11291671B2, “Solid drug implants for intracochlear delivery of therapeutics for the treatment of Otic disorders” (O-Ray Pharma, Inc., priority 2012, dated 2022).

Assays:
guinea pig cochleae [1] = assay: Intracochlear fluticasone proprionate for otoprotection of cisplatin dependent hearing loss, click ABR threshold; assay type: in vivo; conditions: control ear (no implant), day 28, after cisplatin; baseline day 14 23.9±2.3 dB; P≤0.0001
Source text: Surgery: Albino guinea pigs were used for the single dose intracochlear implantation experiment. The guinea pigs received a single implant in one of their ears, and the other ear was used as internal control. Under general anesthesia, a postauricular incision was made over the bulla in the experimental ear. A small hole was drilled through the bulla using a posterior approach. The ear was positioned with the round window facing horizontally and superiorly. A 32-gauge needle was used to puncture the round window and the particle was put in contact with the perilymph in the scala tympani. A blood drop was placed over the round window injection site to avoid leakage of perilymphatic fluids and a suture was used to close the wound. Auditory Measurements; see FIGS. 5A and 5B: Animals were anesthetized for auditory testing. […] Lower ABR LS Means reading indicates better hearing. Error bars indicate Standard Error. Study Design: Particles were created and implanted into guinea pig cochleae as described in Examples 1-2. The study design is as follows: • Each animal: one ear implanted with extended release fluticasone particle (“implant ear”), other ear served as internal control (“control ear”). • Hearing was assessed via click (broad frequency) ABRs and DPOAE

guinea pig cochleae [2] = assay: Intracochlear fluticasone proprionate for otoprotection of cisplatin dependent hearing loss, DPOAE; assay type: in vivo; conditions: 14 days after cisplatin application, no implant
Source text: Surgery: Albino guinea pigs were used for the single dose intracochlear implantation experiment. The guinea pigs received a single implant in one of their ears, and the other ear was used as internal control. Under general anesthesia, a postauricular incision was made over the bulla in the experimental ear. A small hole was drilled through the bulla using a posterior approach. The ear was positioned with the round window facing horizontally and superiorly. A 32-gauge needle was used to puncture the round window and the particle was put in contact with the perilymph in the scala tympani. A blood drop was placed over the round window injection site to avoid leakage of perilymphatic fluids and a suture was used to close the wound. DPOAE (2f1-f2) Input/output functions were recorded. Response amplitude was recorded as a function of L2 (L1-L2=10 dB); primaries incremented together in 5 dB steps (from 20 to 80 dB SPL) spanning the frequency range f2=5.6-45.2 kHz (f2/f1=1.2). […] Higher DPOAE reading indicates better hearing. Error bars indicate Standard Error. […] The study design is as follows: • Each animal: one ear implanted with extended release fluticasone particle (“implant ear”), other ear served as internal control (“control ear”). • Hearing was assessed via click (broad frequency) ABRs and DPOAE

patients = conditions: cited from earlier work

Structure (SMILES) | ABR threshold, control ears following cisplatin treatment at day 28 (guinea pig cochleae [1]) | DPOAE responses, control ears (guinea pig cochleae [2]) | Patients displaying some vestibular impairment (patients; one gram daily for 60 to 120 days) | Incidence of vestibular impairment (patients; two grams per day)
N.N.[Cl][Pt][Cl] [cisplatin, cis-diammine-dichloroplatinum(II)] | 40.7±2.5 dB | absent |  | 
[H]/N=C(/N)N[C@H]1[C@H](O)[C@@H](O)[C@H](O[C@@H]2O[C@@H](C)[C@](O)(C=O)[C@H]2O[C@@H]2O[C@@H](CO)[C@H](O)[C@@H](O)[C@@H]2NC)[C@@H](N/C(N)=N\[H])[C@@H]1O [streptomycin] |  |  | 25% | 75%
